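All cell lines were grown in 96-well plates and treated with compound for 48 hours. GI50 = concentration required for 50% inhibition of growth.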 Activity calls are given as the source filed them. Cut-off read from the data, not from the text of the source: active = GI50 up to about 1.1 µM and inactive = higher.

Test systems include A549; BT-549; DU-145; HCT-15; HOP-92; IGROV-1; MCF7; MDA-MB-435; MDA-N; MOLT-4; NCI-H226; NCI-H23; NCI-H460; OVCAR-4; OVCAR-5; PC-3; SR; SW-620; U-251; UACC-257.
What all share (test): NCI-60 cell line screen, 48 h

`COc1cc2c(c(N)c1OC)C(=O)/C(=C/c1cc(C)c(O)c(C)c1)C2`: the GI50 with A549 is < 0.01 µM (active); in the assay on BT-549, 9.68 µM (inactive); in the assay on DU-145 it was < 0.01 µM (active); with HCT-15, < 0.01 µM; in the assay with HOP-92 it was > 100 µM (inactive); in the assay with IGROV-1, 0.0367 µM (active). Besides, the GI50 in the assay on MCF7 is < 0.01 µM (active); in the assay on MDA-MB-435 it was < 0.01 µM (active); in the assay with MDA-N, < 0.01 µM (active); in the assay on MOLT-4 it was < 0.01 µM (active); in the assay on NCI-H226, 4.19 µM (inactive); with NCI-H23, < 0.01 µM (active). The GI50 with NCI-H460 was < 0.01 µM (active); with OVCAR-4, 7.91 µM (inactive); with OVCAR-5, 0.693 µM (active); in the assay on PC-3 it was < 0.01 µM (active); in the assay with SR it was < 0.01 µM (active); in the assay with SW-620, < 0.01 µM (active). The GI50 in the assay with U-251 was < 0.0164 µM (active); in the assay with UACC-257 it was > 100 µM (inactive).

For the compound `C=C1C(=O)C2=CC1CCC(=O)C1(C)CCC(OC(C)=O)C(C)(C)C1CC2O` (stereo not given), the GI50 was 4.38 µM (inactive) in the assay on A549; 3.08 µM (inactive) with BT-549; 3.03 µM (inactive) with DU-145; 0.552 µM in the assay with HCT-15; 4.22 µM (inactive) with HOP-92; 3.03 µM (inactive) with IGROV-1. Also, the GI50 is 0.798 µM (active) in the assay with MCF7; 3.24 µM (inactive) with MDA-MB-435; 1.4 µM (inactive) with MDA-N; 0.661 µM (active) with MOLT-4; 7.76 µM (inactive) in the assay on NCI-H226; 2.64 µM (inactive) with NCI-H23. Further, the GI50 is 1.63 µM (inactive) in the assay with NCI-H460; 2.17 µM (inactive) in the assay with OVCAR-4; 5.32 µM (inactive) with OVCAR-5; 7.19 µM (inactive) in the assay on PC-3; 0.347 µM (active) with SR; 2.42 µM (inactive) in the assay with SW-620. Further, the GI50 in the assay with U-251 is 2.93 µM (inactive); in the assay with UACC-257, 3.73 µM (inactive).

In the case of `C[C@H]1CC[C@@H]2[C@@H](C)[C@H]3[C@H](C[C@H]4[C@@H]5CC=C6C[C@@H](O)CC[C@]6(C)[C@H]5CC[C@]34C)N2C1`, the GI50 was > 100 µM (inactive) in the assay with A549; 93.1 µM (inactive) with BT-549; > 100 µM (inactive) with DU-145; > 100 µM in the assay on HCT-15; 12.6 µM (inactive) with HOP-92; 27.9 µM (inactive) with IGROV-1. Moreover, the GI50 in the assay on MCF7 is 38.5 µM (inactive); in the assay with MDA-MB-435, 89.7 µM (inactive); with MDA-N it was > 100 µM (inactive); in the assay with MOLT-4, 24.5 µM (inactive); with NCI-H226, 14.6 µM (inactive); in the assay on NCI-H23 it was 88.5 µM (inactive). Further, the GI50 in the assay with NCI-H460 is 37.9 µM (inactive); in the assay on OVCAR-4, 32.4 µM (inactive); in the assay on OVCAR-5 it was > 100 µM (inactive); with PC-3 it was 50.9 µM (inactive); in the assay on SR, 22.6 µM (inactive); in the assay with SW-620, 75.2 µM (inactive). The GI50 with U-251 is 31.8 µM (inactive); with UACC-257, 45.1 µM (inactive).

Take `COc1cc(Oc2nc3ccc(C(F)(F)F)cc3nc2-c2ccccc2)cc(OC)c1OC`: the GI50 is 17.1 µM (inactive) with A549; 20.2 µM (inactive) in the assay on BT-549; > 100 µM (inactive) in the assay with DU-145; > 100 µM with HCT-15; 14.5 µM (inactive) in the assay on HOP-92; 58.2 µM (inactive) in the assay on IGROV-1. The GI50 with MCF7 was 8.18 µM (inactive); in the assay on MDA-MB-435, 30.4 µM (inactive); with MDA-N, 40.7 µM (inactive); with MOLT-4, > 10 µM (inactive); in the assay with NCI-H226, 33.3 µM (inactive); with NCI-H23, 35.4 µM (inactive). Also, the GI50 is 34 µM (inactive) in the assay on NCI-H460; 6.58 µM (inactive) in the assay on OVCAR-4; > 100 µM (inactive) in the assay on OVCAR-5; 22.6 µM (inactive) in the assay with PC-3; 34 µM (inactive) in the assay with SR; > 10 µM (inactive) with SW-620. Further, the GI50 in the assay with U-251 is 13 µM (inactive); with UACC-257, 48.8 µM (inactive).

In the case of `O=C(NCCCNCCCCNCCCNC(=O)c1cc(-c2ccccc2)nc2ccccc12)c1cc(-c2ccccc2)nc2ccccc12`, the GI50 with A549 is 2.12 µM (inactive); in the assay on BT-549, 3.13 µM (inactive); in the assay on DU-145, 17.6 µM (inactive); in the assay with HCT-15, 20.1 µM; with HOP-92 it was 1.48 µM (inactive); with IGROV-1 it was 2.16 µM (inactive). In addition, the GI50 in the assay on MCF7 is 2.1 µM (inactive); in the assay with MDA-MB-435, 1.8 µM (inactive); with MDA-N, 1.77 µM (inactive); in the assay with MOLT-4, 1.9 µM (inactive); in the assay with NCI-H226, 1.83 µM (inactive); with NCI-H23 it was 3 µM (inactive). Also, the GI50 with NCI-H460 is 2.32 µM (inactive); in the assay on OVCAR-4 it was 2.64 µM (inactive); in the assay on OVCAR-5, 2.05 µM (inactive); in the assay with PC-3, 2.12 µM (inactive); in the assay with SR it was 1.97 µM (inactive); in the assay on SW-620, 2.62 µM (inactive). The GI50 with U-251 was 1.66 µM (inactive); in the assay with UACC-257, 3.74 µM (inactive).

Turning to `OC(c1cc(C23CC4CC(CC(C4)C2)C3)nc2c(Cl)cc(Cl)cc12)C1CCCCN1` (stereo not given), the GI50 is 1.82 µM (inactive) with A549; 2.02 µM (inactive) in the assay with BT-549; 1.77 µM (inactive) with DU-145; 1.83 µM with HCT-15; 2.05 µM (inactive) in the assay with HOP-92; 1.77 µM (inactive) in the assay on IGROV-1. Further, the GI50 with MCF7 is 1.6 µM (inactive); in the assay with MDA-MB-435 it was 1.67 µM (inactive); in the assay on MDA-N, 1.68 µM (inactive); with MOLT-4, 0.608 µM (active); in the assay on NCI-H226, 2.07 µM (inactive); with NCI-H23, 1.85 µM (inactive). The GI50 with NCI-H460 was 1.61 µM (inactive); in the assay with OVCAR-4, 1.69 µM (inactive); with OVCAR-5, 1.79 µM (inactive); with PC-3, 1.62 µM (inactive); with SR it was 0.705 µM (active); in the assay on SW-620 it was 1.57 µM (inactive). Besides, the GI50 with U-251 was 1.51 µM (inactive); in the assay with UACC-257 it was 1.97 µM (inactive).

On to `N#CCCN(CCC#N)c1ccc(/C=C2\SC(=S)NC2=O)cc1`, for which the GI50 with A549 is > 100 µM (inactive); in the assay on BT-549, 31.8 µM (inactive); in the assay on DU-145, > 100 µM (inactive); with HCT-15, > 100 µM; in the assay with HOP-92, 75.9 µM (inactive); in the assay on IGROV-1, > 100 µM (inactive). Further, the GI50 in the assay on MCF7, in the assay on MDA-MB-435, with MDA-N, in the assay with MOLT-4, in the assay with NCI-H226 and in the assay with NCI-H23 was > 100 µM (inactive) in each case. In addition, the GI50 was > 100 µM (inactive) in the assay with NCI-H460; 30.8 µM (inactive) in the assay on OVCAR-4; > 100 µM (inactive) in the assay with OVCAR-5; > 100 µM (inactive) with PC-3; > 100 µM (inactive) in the assay on SR; > 100 µM (inactive) in the assay on SW-620. For the same compound, the GI50 is 20.3 µM (inactive) with U-251 and > 100 µM (inactive) in the assay on UACC-257.

Consider `Cc1ccc(CC(Cc2ccccc2C)C(=O)O)c(C(=O)O)c1` (stereo not given), for which the GI50 in the assay with A549 is > 100 µM (inactive); in the assay with BT-549, > 100 µM (inactive); in the assay with DU-145, > 100 µM (inactive); in the assay on HCT-15, > 100 µM; with HOP-92 it was > 100 µM (inactive); in the assay with IGROV-1, > 100 µM (inactive). Moreover, the GI50 with MCF7, with MDA-MB-435, in the assay on MDA-N, with MOLT-4, in the assay with NCI-H226 and in the assay with NCI-H23 was > 100 µM (inactive) throughout. The GI50 in the assay with NCI-H460, in the assay on OVCAR-4, with OVCAR-5, in the assay on PC-3, in the assay on SR and in the assay on SW-620 was > 100 µM (inactive) throughout. Moreover, the GI50 in the assay on U-251 and with UACC-257 was > 100 µM (inactive) throughout.

As to `O=C(O)CCC(=O)Nc1ccc2c(c1)S(=O)(=O)N(CC(=O)O)C2=O`, the GI50 in the assay with A549 is > 100 µM (inactive); in the assay on BT-549, > 100 µM (inactive); with DU-145 it was > 100 µM (inactive); in the assay with HCT-15, > 100 µM; in the assay on HOP-92 it was > 100 µM (inactive); in the assay with IGROV-1, > 100 µM (inactive). Further, the GI50 with MCF7, in the assay on MDA-MB-435, in the assay with MDA-N, in the assay with MOLT-4, in the assay on NCI-H226 and with NCI-H23 was > 100 µM (inactive) in each case. In addition, the GI50 with NCI-H460, with OVCAR-4, in the assay with OVCAR-5, in the assay on PC-3, in the assay with SR and with SW-620 was > 100 µM (inactive) in each case. In addition, the GI50 in the assay with U-251 and in the assay on UACC-257 was > 100 µM (inactive) in each case.

For `O=[N+]([O-])c1c(O)c2nonc2c2nn(-c3ccccc3)nc12`, the GI50 with A549 is > 100 µM (inactive); in the assay on BT-549, > 100 µM (inactive); with DU-145, > 100 µM (inactive); with HCT-15, > 100 µM; in the assay on HOP-92 it was > 100 µM (inactive); in the assay with IGROV-1, > 100 µM (inactive). The GI50 is 20.5 µM (inactive) in the assay with MCF7; > 100 µM (inactive) with MDA-MB-435; > 100 µM (inactive) with MDA-N; > 100 µM (inactive) in the assay on MOLT-4; 6.85 µM (inactive) in the assay with NCI-H226; > 100 µM (inactive) in the assay on NCI-H23. Also, the GI50 with NCI-H460 is > 100 µM (inactive); with OVCAR-4, 83.4 µM (inactive); in the assay with OVCAR-5 it was > 100 µM (inactive); in the assay on PC-3 it was > 100 µM (inactive); in the assay on SR, > 100 µM (inactive); with SW-620, > 100 µM (inactive). For the same compound, the GI50 in the assay on U-251 and with UACC-257 was > 100 µM (inactive) throughout.

The record behind these values is ChEMBL document CHEMBL1201862, “PubChem BioAssay data set” (2004).
